The text below walks through data of US20240287052A1, “NOVEL OXAZOLE DERIVATIVE AND PHARMACEUTICAL COMPOSITION FOR PREVENTING OR TREATING ALLERGIC DISEASES COMPRISING THE SAME” (AZCURIS CO., LTD., priority 2021, published 2024).

Where two headings read alike, the source gives them in different places.

Data set [1] deals with IL-6 secretion in the human mast cell line HMC 1.1. Put plainly: IL-6 production inhibition assay (IL-33 stimulated HMC 1.1 cells, IL-6 ELISA). The format is cell-based. To be noted: for inhibition at 0.1 µM: 0.1 μM compound, read-out: Inhibition of hIL-6 production (%) 0.1 μM; for inhibition at 0.1 µM / inhibition at 1 µM / inhibition at 10 µM: 24 hours; for inhibition at 1 µM: 1 μM compound, read-out: Inhibition of hIL-6 production (%) 1 μM; for inhibition at 10 µM: 10 μM compound, read-out: Inhibition of hIL-6 production (%) 10 μM; for EC50: read-out: Inhibition of hIL-6 production EC50. A digest of the protocol:
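HMC 1.1 cells stimulated with 200 nM recombinant human IL-33 were exposed 24 hours to compound at 10 μM, 25 μM, 30 μM or 50 μM, among other levels. Secreted IL-6 was quantified by ELISA in triplicate against a standard curve and expressed as % of vehicle.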

Data set [2] relates to Human liver cancer cell line HepG2 cells. Nature of the data set: Cellular viability, WST-8 assay, without or with human liver microsomes. The class given is cell-based. To be noted: for Cellular viability (%) (+) microsome: HepG2, with human liver microsomes; for Cellular viability (%) (−) microsome: HepG2, without human liver microsomes. The method, then: (§1) Human liver cancer cell line HepG2 cells were cultured in a medium (high glucose Dulbecco's Modified Eagle Medium, DMEM, HyClone) supplemented with 10% fetal bovine serum (FBS, HyClone) and 1% antibiotic in a thermostat maintained at 37° C. with 5% CO2.
(§2) HepG2 cells, which are adherent cells, were […] or presence of human liver microsomes (Gibco) and NADPH regenerating system.
(§3) Cell cultures were exchanged using […] of medium (high glucose Dulbecco's Modified Eagle Medium, DMEM, HyClone) and incubated for 24 hours.
(§4) After adding 10 μL of WST-8 (abCam), the absorbance was obtained at 460 nm after 5 seconds of orbital shaking with a microplate reader (Tecan, Spark©) 2 hours later.
(§5) The mean of the three values obtained in triplicate was calculated and expressed as % cellular viability compared to vehicle treatment.

Data set [3] has as its target T1, IL33 and ST2 binding (Homo sapiens, UniProt O95760).
T1 sequence (O95760 112-270 limits assumed): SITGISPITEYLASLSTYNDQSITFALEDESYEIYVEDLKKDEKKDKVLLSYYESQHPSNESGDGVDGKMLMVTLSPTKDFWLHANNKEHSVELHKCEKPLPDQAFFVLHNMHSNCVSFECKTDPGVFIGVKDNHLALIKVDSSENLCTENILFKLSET
Method: (§6) 100 nM of Flag tagged IL-33 human recombinant protein was prepared in 1× coating buffer (Biolegend) and placed in a 96 well microplate (Coming) using a Multichannel pipette (Gilson) and coated for at least 12 hours at 4° C.
(§7) After washing three times with PBST (1×PBS (Welgene), 1% Tween 20 (sigma)), it was reacted with 1% BSA (Bovogen) blocking buffer for 1 hour at room temperature.
(§8) Samples containing 200 nM of His-tagged ST2 human recombinant protein and 60 μM or 200 μM Example synthetic compounds were prepared, added in equal volumes, and reacted for at least 2 hours at room temperature.
(§9) After washing three times with PBST (1×PBS (Welgene), 1% Tween 20 (sigma)), anti-His HRP (BioLegend) antibody was diluted 5000:1 and reacted for at least 1 hour at room temperature.
(§10) After washing three times with PBST (1×PBS (Welgene), 1% Tween 20 (sigma)), TMB substrate solution (Thermo) was added and reacted for more than 5 minutes. The reaction was stopped by adding 1 N HCl (Samchun) and the absorbance value was obtained at 450 nm after orbital shaking for 5 s with a Microplate reader (Tecan, Spark®).
(§11) The results derived from the program linked to the microplate reader were analyzed using an Excel program. IL33-ST2 binding rate (binding %) was calculated by averaging the three values obtained in triplicate, subtracting the positive control value, and converting the negative control value to 100%. The inhibition % value of each compound was obtained by subtracting the IL33-ST2 binding % from 100%, and the error range of triplicate was also obtained and reflected in the inhibition graph of the compound.

In data set [4] the target is T1, IL33 and ST2 binding. Put plainly: biochemical.
Method: as §6, §7, §8, §9, §10, §11
Data set [5] in a line: Cellular viability, WST-8 assay, without or with human liver microsomes. The class given is cell-based. The method, then:
as §1, §2, §3, §4, §5

Where [6] appears, read: HepG2, with human liver microsomes, read-out: CC50 (μM) (+) microsome.
The mark [7] stands for this setting: HepG2 cells, HepG2, without human liver microsomes, read-out: CC50 (μM) (−) microsome.
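Throughout, for IC50: plate ELISA with coated Flag-tagged human IL-33 and His-tagged human ST2, bound ST2 detected by anti-His HRP and TMB absorbance at 450 nm, 2 h compound incubation.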

What is called inhibition is the drop in the measured response relative to a control, in per cent. For orientation: EC50 means the concentration at which the effect is half-maximal. As a reminder, the IC50 is the midpoint of a concentration-inhibition curve. Read a high IC50 as weaker potency. `CCOC(=O)c1nc(-c2ccc(C(F)(F)F)cc2)oc1-c1ccccc1` [Compound 31, Ethyl 5-phenyl-2-(4-(trifluoromethyl)phenyl)oxazole-4-carboxylate]: in data set [1], the inhibition at 0.1 µM amounted to 46%, the inhibition at 1 µM stood at 56%, the inhibition at 10 µM was 69% and the EC50 was determined as 0.23 µM. In data set [2] (at 135 μM), the “Cellular viability (%) (+) microsome” value was found to be 66 at % and the “Cellular viability (%) (−) microsome” value came out at 83 at %. On IL33 and ST2 binding [3] (30 µM), the inhibition was 110%. In addition, the inhibition at IL33 and ST2 binding [3] (100 µM) was determined as 109%. This molecule also gave an IC50 at IL33 and ST2 binding [4] of 0.78 µM.

What is called CC50 is the concentration giving 50% cytotoxicity. For the molecule `CCOC(=O)c1nc(-c2ccc(C(F)(F)F)cc2)oc1-c1cccc([N+](=O)[O-])c1` [Compound 33, Ethyl 5-(3-nitrophenyl)-2-(4-(trifluoromethyl)phenyl)oxazole-4-carboxylate], in data set [1], the inhibition at 1 µM came to 30% and the inhibition at 10 µM was 32%. The CC50 at 24 h in data set [5] (setting [6]) was determined as 43.5 µM. The half-maximal cytotoxic concentration (CC50) at 24 h in data set [5] (setting [7]) amounted to 67 µM. In data set [2] (at 100 μM), the “Cellular viability (%) (+) microsome” value is recorded as 68 at % and the “Cellular viability (%) (−) microsome” value is 73 at %. For the same molecule, the inhibition at IL33 and ST2 binding [3] (30 µM) worked out at 107%. For the same molecule, the inhibition on IL33 and ST2 binding [3] (100 µM) was 108%. At IL33 and ST2 binding [4], this molecule gave an IC50 of 1.71 µM.

Take `CCOC(=O)c1nc(-c2ccc(C(F)(F)F)cc2)oc1-c1ccccc1OC` [Compound 44, Ethyl 5-(2-methoxyphenyl)-2-(4-(trifluoromethyl)phenyl)oxazole-4-carboxylate]: in data set [1], the inhibition at 1 µM stood at 38%, the inhibition at 10 µM turned out to be 77% and the EC50 was 2.56 µM. Besides, in data set [2] (at 100 μM), the “Cellular viability (%) (+) microsome” value is on record as 99 at % and the “Cellular viability (%) (−) microsome” value worked out at 68 at %. In addition, the inhibition on IL33 and ST2 binding [3] (30 µM) came to 100%. This molecule gave an IC50 on IL33 and ST2 binding [4] of 1.26 µM.

Consider `CCOC(=O)c1nc(-c2ccc(C(F)(F)F)cc2)oc1-c1ccccc1OC(F)(F)F` [Compound 52, Ethyl 5-(2-(trifluoromethoxy)phenyl)-2-(4-(trifluoromethyl)phenyl)oxazole-4-carboxylate], for which, in data set [1], the inhibition at 1 µM is 22%, the inhibition at 10 µM was 48% and the EC50 turned out to be 2.26 µM. In data set [2] (at 100 μM), the “Cellular viability (%) (+) microsome” value is 97 at % and the “Cellular viability (%) (−) microsome” value is 117 at %. For the same molecule, at IL33 and ST2 binding [3] (30 µM), the inhibition came out at 115%. The inhibition on IL33 and ST2 binding [3] (100 µM) is 115%. For the same molecule, on IL33 and ST2 binding [4], the half-maximal inhibitory concentration (IC50) is 7.99 µM.

Take `CCOC(=O)c1nc(-c2cccc(Cl)c2)oc1-c1ccccc1` [Compound 75, Ethyl 2-(3-chlorophenyl)-5-phenyloxazole-4-carboxylate]: in data set [1], the inhibition at 1 µM turned out to be 5% and the inhibition at 10 µM was determined as 26%. Besides, in data set [2] (at 100 μM), the “Cellular viability (%) (+) microsome” value came out at 100 at % and the “Cellular viability (%) (−) microsome” value is recorded as 106 at %. Further, the inhibition at IL33 and ST2 binding [3] (30 µM) was 93%. The inhibition at IL33 and ST2 binding [3] (100 µM) turned out to be 108%. In addition, on IL33 and ST2 binding [4], the IC50 was determined as 11.7 µM.

With `CCOC(=O)c1nc(-c2ccc(Cl)c(C(F)(F)F)c2)oc1-c1ccccc1` [Compound 98, Ethyl 2-(4-chloro-3-(trifluoromethyl)phenyl)-5-phenyloxazole-4-carboxylate], in data set [1], the inhibition at 1 µM is -12% and the inhibition at 10 µM came out at 30%. Also, in data set [2] (at 100 μM), the “Cellular viability (%) (+) microsome” value is 90 at % and the “Cellular viability (%) (−) microsome” value turned out to be 83 at %. On IL33 and ST2 binding [3] (30 µM), the inhibition was found to be 110%. The inhibition on IL33 and ST2 binding [3] (100 µM) came to 110%. The same molecule displayed an IC50 at IL33 and ST2 binding [4] of 5.21 µM.

Regarding `CN(C)CCNC(=O)c1nc(-c2ccc(Cl)cc2)oc1-c1ccccc1[N+](=O)[O-]` [Compound 246, 2-(4-Chlorophenyl)-N-(2-(dimethylamino)ethyl)-5-(2-nitrophenyl)oxazole-4-carboxamide], in data set [1], the inhibition at 1 µM came out at 20%, the inhibition at 10 µM came out at 45% and the EC50 was 6.15 µM. Moreover, the CC50 at 24 h in data set [5] (setting [6]) was 16 µM. In data set [5] (setting [7]), the CC50 at 24 h worked out at 11.8 µM. Besides, in data set [2] (at 100 μM), the “Cellular viability (%) (+) microsome” value is 52 at % and the “Cellular viability (%) (−) microsome” value is reported as 47 at %. The inhibition on IL33 and ST2 binding [3] (30 µM) turned out to be 110%. On IL33 and ST2 binding [3] (100 µM), the inhibition is 112%. Besides, the IC50 on IL33 and ST2 binding [4] came out at 4.78 µM.

Take `CN(C)CCNC(=O)c1nc(-c2ccc(C#N)cc2)oc1-c1ccccc1` [Compound 249, 2-(4-Cyanophenyl)-N-(2-(dimethylamino)ethyl)-5-phenyloxazole-4-carboxamide]: the inhibition at 1 µM in data set [1] worked out at 8%. Further, the inhibition at 10 µM in data set [1] amounted to 35%. Further, the values for the CC50 at 24 h in data set [5] (setting [6]) and in data set [5] (setting [7]) were 29.1 µM and 19 µM, respectively. In addition, the “Cellular viability (%) (+) microsome” value in data set [2] (at 100 μM) is listed as 50 at %. For the same molecule, the “Cellular viability (%) (−) microsome” value in data set [2] (at 100 μM) is 43 at %. Besides, the inhibition is 81% at IL33 and ST2 binding [3] (30 µM); 97% on IL33 and ST2 binding [3] (100 µM). Besides, the IC50 on IL33 and ST2 binding [4] is 6.46 µM.

Regarding `CSc1ccc(-c2nc(C(=O)NCCN3CCN(C)CC3)c(-c3ccccc3)o2)cc1` [Compound 272, N-(2-(4-Methylpiperazin-1-yl)ethyl)-2-(4-(methylthio)phenyl)-5-phenyloxazole-4-carboxamide], in data set [1], the inhibition at 1 µM was 52%, the inhibition at 10 µM was found to be 79% and the EC50 was 0.42 µM. Besides, the CC50 at 24 h in data set [5] (setting [6]) came to 5.6 µM. Further, in data set [5] (setting [7]), the CC50 at 24 h was 4.73 µM. Moreover, in data set [2] (at 100 μM), the “Cellular viability (%) (+) microsome” value is reported as 49 at % and the “Cellular viability (%) (−) microsome” value is recorded as 46 at %. Further, the inhibition at IL33 and ST2 binding [3] (30 µM) was 97%. Besides, the inhibition on IL33 and ST2 binding [3] (100 µM) came to 97%. For the same molecule, on IL33 and ST2 binding [4], the IC50 was found to be 4.17 µM.

For `CNC(=O)c1nc(-c2ccc(C(F)(F)F)cc2)oc1-c1cccc(SC)c1` [Compound 290, N-Methyl-5-(3-(methylthio)phenyl)-2-(4-(trifluoromethyl)phenyl)oxazole-4-carboxamide], in data set [1], the inhibition at 0.1 µM was found to be 28%, the inhibition at 1 µM was determined as 49% and the inhibition at 10 µM is 59%. In data set [2] (at 135 μM), the “Cellular viability (%) (+) microsome” value worked out at 60 at % and the “Cellular viability (%) (−) microsome” value was determined as 47 at %. Further, the inhibition at IL33 and ST2 binding [3] (30 µM) is 112%. In addition, at IL33 and ST2 binding [3] (100 µM), the inhibition is 112%. The molecule further displayed an IC50 on IL33 and ST2 binding [4] of 4.51 µM.

Turning to `CCNC(=O)c1nc(-c2ccc(C(F)(F)F)cc2)oc1-c1cccc(SC)c1` [Compound 291, N-Ethyl-5-(3-(methylthio)phenyl)-2-(4-(trifluoromethyl)phenyl)oxazole-4-carboxamide], in data set [1], the inhibition at 0.1 µM was 25%, the inhibition at 1 µM worked out at 40%, the inhibition at 10 µM amounted to 66% and the EC50 came out at 0.49 µM. Further, in data set [2] (at 160 μM), the “Cellular viability (%) (+) microsome” value amounted to 102 at % and the “Cellular viability (%) (−) microsome” value was 106 at %. Also, the inhibition on IL33 and ST2 binding [3] (30 µM) is 112%. The inhibition at IL33 and ST2 binding [3] (100 µM) is 111%. This molecule came in with an IC50 on IL33 and ST2 binding [4] of 0.64 µM.

Regarding `CCCNC(=O)c1nc(-c2ccc(C(F)(F)F)cc2)oc1-c1cccc(SC)c1` [Compound 292, 5-(3-(Methylthio)phenyl)-N-propyl-2-(4-(trifluoromethyl)phenyl)oxazole-4-carboxamide], in data set [1], the inhibition at 0.1 µM came to 29%, the inhibition at 1 µM is 39%, the inhibition at 10 µM was 42% and the EC50 was determined as 0.09 µM. Further, in data set [2] (at 135 μM), the “Cellular viability (%) (+) microsome” value is 58 at % and the “Cellular viability (%) (−) microsome” value is given as 55 at %. Besides, on IL33 and ST2 binding [3] (30 µM), the inhibition amounted to 110%. The inhibition on IL33 and ST2 binding [3] (100 µM) was determined as 112%. Moreover, the IC50 at IL33 and ST2 binding [4] stood at 1.13 µM.
